Results reported in US8927717B1, “Thiochromeno[2,3-c]quinolin-12-one derivatives, preparation method and application thereof” (National Defense Medical Center, priority 2014, dated 2015).

What was measured:
CCRF-CEM = type: cell-based; conditions: for Growth percent CCRF-CEM: Leukemia, 48 hours, SRB
A549/ATCC = type: cell-based; conditions: for Growth percent A549/ATCC: Non-small cell lung cancer, 48 hours, SRB
HOP-92 = type: cell-based; conditions: 10^−5 molar
HCC-2998 = type: cell-based; conditions: for Growth percent HCC-2998: Colon cancer, 48 hours, SRB
HCT-15 = type: cell-based; conditions: for Growth percent HCT-15: Colon cancer, 48 hours, SRB
SF-295 = type: cell-based; conditions: for Growth percent SF-295: CNS cancer, 48 hours, SRB
SF-539 = type: cell-based
SNB-75 = type: cell-based; conditions: for Growth percent SNB-75: CNS cancer, 48 hours, SRB
SK-MEL-2 = type: cell-based
UACC-257 = type: cell-based; conditions: for Growth percent UACC-257: Melanoma, 48 hours, SRB
IGROV1 = type: cell-based; conditions: for Growth percent IGROV1: Ovarian cancer, 48 hours, SRB
OVCAR-3 = type: cell-based; conditions: for Growth percent OVCAR-3: Ovarian cancer, 48 hours, SRB
OVCAR-4 = type: cell-based; conditions: for Growth percent OVCAR-4: Ovarian cancer, 10^−5 molar, 48 hours, SRB
OVCAR-5 = type: cell-based; conditions: for Growth percent OVCAR-5: Ovarian cancer, 48 hours, SRB
CAKI-1 = type: cell-based; conditions: for Growth percent CAKI-1: Renal cancer, 10^−5 molar, 48 hours, SRB
SN12C = type: cell-based; conditions: for Growth percent SN12C: Renal cancer, 48 hours, SRB
UO-31 = type: cell-based; conditions: for Growth percent UO-31: Renal cancer, 48 hours, SRB
DU-145 = type: cell-based; conditions: for Growth percent DU-145: Prostate cancer, 48 hours, SRB
HS 578T = type: cell-based; conditions: for Growth percent HS 578T: Breast cancer, 48 hours, SRB
BT-549 = type: cell-based; conditions: for Growth percent BT-549: Breast cancer, 48 hours, SRB
[1] = Homo sapiens, A549/ATCC, five dose
[2] = Homo sapiens, HCC-2998, five dose
[3] = Homo sapiens, HCT-15, five dose
[4] = Homo sapiens, SF-295, five dose
[5] = Homo sapiens, SF-539, five dose
[6] = Homo sapiens, SNB-75, five dose
[7] = Homo sapiens, SK-Mel-2, five dose

CCNc1nc2ccccc2c2c(=O)c3cc(Cl)ccc3sc12 [Compound N2, 10-Chloro-6-ethylamino-12H-thiochromeno[2,3-c]quinolin-12-one]
TGI (CCRF-CEM; CCRF-CEM, five dose): >100 µM | GI50 (CCRF-CEM; Homo sapiens, CCRF-CEM, five dose): > 100 µM | CC50 (CCRF-CEM; Homo sapiens, CCRF-CEM, five dose, read-out: LC50 (the source's name)): > 100 µM | Growth percent CCRF-CEM (CCRF-CEM; 10^−5 molar): 88.62% | TGI (A549/ATCC; A549/ATCC, five dose): >100 µM | GI50 (A549/ATCC; [1]): 48.1 µM | LC50 (A549/ATCC; [1]): > 100 µM | Growth percent A549/ATCC (A549/ATCC; 10^−5 molar): 61.84% | Growth percent HOP-92 (HOP-92; Non-small cell lung cancer, 48 hours, SRB): −0.07% | Growth percent HCC-2998 (HCC-2998; 10^−5 molar): 98.02% | TGI (HCC-2998; HCC-2998, five dose): >100 µM | GI50 (HCC-2998; [2]): > 100 µM | LC50 (HCC-2998; [2]): > 100 µM | Growth percent HCT-15 (HCT-15; 10^−5 molar): 79.72% | TGI (HCT-15; HCT-15, five dose): >100 µM | GI50 (HCT-15; [3]): > 100 µM | LC50 (HCT-15; [3]): > 100 µM | Growth percent SF-295 (SF-295; 10^−5 molar): 69.49% | GI50 (SF-295; [4]): 12.2 µM | LC50 (SF-295; [4]): > 100 µM | TGI (SF-295; SF-295, five dose): 35.20 µM | Growth percent SF-539 (SF-539; CNS cancer, 10^−5 molar, 48 hours, SRB): 60.35% | GI50 (SF-539; [5]): 10.1 µM | LC50 (SF-539; [5]): > 100 µM | TGI (SF-539; SF-539, five dose): 58.50 µM | Growth percent SNB-75 (SNB-75; 10^−5 molar): 12.12% | GI50 (SNB-75; [6]): 4.96 µM | LC50 (SNB-75; [6]): 60.2 µM | TGI (SNB-75; SNB-75, five dose): 22.00 µM | GI50 (SK-MEL-2; [7]): 16.3 µM | LC50 (SK-MEL-2; [7]): > 100 µM | Growth percent SK-MEL-2 (SK-MEL-2; Melanoma, 10^−5 molar, 48 hours, SRB): 76.15% | TGI (SK-MEL-2; SK-Mel-2, five dose): 43.2 µM | GI50 (UACC-257; Homo sapiens, UACC-257, five dose): > 100 µM | CC50 (UACC-257; Homo sapiens, UACC-257, five dose, read-out: LC50 (the source's name)): > 100 µM | Growth percent UACC-257 (UACC-257; 10^−5 molar): 75.21% | TGI (UACC-257; UACC-257, five dose): >100 µM | GI50 (IGROV1; Homo sapiens, IGROV-1, IGROV1, five dose): 11.9 µM | CC50 (IGROV1; Homo sapiens, IGROV-1, IGROV1, five dose, read-out: LC50 (the source's name)): > 100 µM | TGI (IGROV1; IGROV1, five dose): 54.40 µM | Growth percent IGROV1 (IGROV1; 10^−5 molar): 59.26% | GI50 (OVCAR-3; Homo sapiens, OVCAR-3, five dose): 52.4 µM | CC50 (OVCAR-3; Homo sapiens, OVCAR-3, five dose, read-out: LC50 (the source's name)): > 100 µM | TGI (OVCAR-3; OVCAR-3, five dose): >100 µM | Growth percent OVCAR-3 (OVCAR-3; 10^−5 molar): 76.51% | GI50 (OVCAR-4; Homo sapiens, OVCAR-4, five dose): > 100 µM | CC50 (OVCAR-4; Homo sapiens, OVCAR-4, five dose, read-out: LC50 (the source's name)): > 100 µM | TGI (OVCAR-4; OVCAR-4, five dose): >100 µM | Growth percent OVCAR-4 (OVCAR-4): 23.19% | GI50 (OVCAR-5; Homo sapiens, OVCAR-5, five dose): > 100 µM | CC50 (OVCAR-5; Homo sapiens, OVCAR-5, five dose, read-out: LC50 (the source's name)): > 100 µM | TGI (OVCAR-5; OVCAR-5, five dose): >100 µM | Growth percent OVCAR-5 (OVCAR-5; 10^−5 molar): 92.93% | TGI (CAKI-1; CAKI-1, five dose): >100 µM | GI50 (CAKI-1; Homo sapiens, CAKI-1, five dose): 26.4 µM | CC50 (CAKI-1; Homo sapiens, CAKI-1, five dose, read-out: LC50 (the source's name)): > 100 µM | Growth percent CAKI-1 (CAKI-1): 72.44% | GI50 (SN12C; Homo sapiens, SN12C, five dose): 75.3 µM | CC50 (SN12C; Homo sapiens, SN12C, five dose, read-out: LC50 (the source's name)): > 100 µM | Growth percent SN12C (SN12C; 10^−5 molar): 84.57% | TGI (SN12C; SN12C, five dose): >100 µM | GI50 (UO-31; Homo sapiens, UO-31, five dose): 29.4 µM | CC50 (UO-31; Homo sapiens, UO-31, five dose, read-out: LC50 (the source's name)): > 100 µM | Growth percent UO-31 (UO-31; 10^−5 molar): 32.06% | TGI (UO-31; UO-31, five dose): >100 µM | TGI (DU-145; DU-145, five dose): >100 µM | GI50 (DU-145; Homo sapiens, DU-145, five dose): > 100 µM | CC50 (DU-145; Homo sapiens, DU-145, five dose, read-out: LC50 (the source's name)): > 100 µM | Growth percent DU-145 (DU-145; 10^−5 molar): 87.67% | Growth percent HS 578T (HS 578T; 10^−5 molar): 36.37% | TGI (HS 578T; HS 578T, five dose): 65.5 µM | GI50 (HS 578T; Homo sapiens, HS 578T, five dose): 9.64 µM | CC50 (HS 578T; Homo sapiens, HS 578T, five dose, read-out: LC50 (the source's name)): > 100 µM | TGI (BT-549; BT-549, five dose): >100 µM | Growth percent BT-549 (BT-549; 10^−5 molar): 100.10% | GI50 (BT-549; Homo sapiens, BT-549, five dose): 9.87 µM | CC50 (BT-549; Homo sapiens, BT-549, five dose, read-out: LC50 (the source's name)): > 100 µM

CC(C)CC(C)Nc1nc2ccccc2c2c(=O)c3cc(Cl)ccc3sc12 (stereo not drawn) [Compound N13, 10-Chloro-6-((4-methylpentan-2-yl)amino)-12H-thiochromeno[2,3-c]quinolin-12-one]
Growth percent CCRF-CEM (CCRF-CEM; 10^−5 molar): 98.57% | Growth percent A549/ATCC (A549/ATCC; 10^−5 molar): 101.98% | Growth percent HCC-2998 (HCC-2998; 10^−5 molar): 112.26% | Growth percent HCT-15 (HCT-15; 10^−5 molar): 96.97% | Growth percent SF-295 (SF-295; 10^−5 molar): 95.92% | Growth percent SNB-75 (SNB-75; 10^−5 molar): 85.02% | Growth percent UACC-257 (UACC-257; 10^−5 molar): 114.40% | Growth percent IGROV1 (IGROV1; 10^−5 molar): 74.77% | Growth percent OVCAR-3 (OVCAR-3; 10^−5 molar): 115.22% | Growth percent OVCAR-4 (OVCAR-4): 86.07% | Growth percent OVCAR-5 (OVCAR-5; 10^−5 molar): 101.36% | Growth percent CAKI-1 (CAKI-1): 86.38% | Growth percent SN12C (SN12C; 10^−5 molar): 95.14% | Growth percent UO-31 (UO-31; 10^−5 molar): 78.64% | Growth percent DU-145 (DU-145; 10^−5 molar): 113.48% | Growth percent HS 578T (HS 578T; 10^−5 molar): 89.33% | Growth percent BT-549 (BT-549; 10^−5 molar): 103.61% | melting point: 176 to 177 °C

O=c1c2cc(Cl)ccc2sc2c(NCCN3CCOCC3)nc3ccccc3c12 [Compound N16, 10-Chloro-6-((2-morpholinoethyl)amino)-12H-thiochromeno[2,3-c]quinolin-12-one]
Growth percent (CCRF-CEM; CCRF-CEM, 10^−5 molar): 82.21% | Growth percent (A549/ATCC; A549/ATCC, 10^−5 molar): 95.12% | Growth percent (HOP-92; HOP-92): 58.79% | Growth percent (HCC-2998; HCC-2998, 10^−5 molar): 90.51% | Growth percent (HCT-15; HCT-15, 10^−5 molar): 58.81% | Growth percent (SF-295; SF-295, 10^−5 molar): 102.17% | Growth percent (SF-539; SF-539, 10^−5 molar): 76.72% | Growth percent (SNB-75; SNB-75, 10^−5 molar): 60.74% | Growth percent (SK-MEL-2; SK-Mel-2, 10^−5 molar): 94.52% | Growth percent (UACC-257; UACC-257, 10^−5 molar): 106.52% | Growth percent (IGROV1; IGROV1, 10^−5 molar): 74.11% | Growth percent (OVCAR-3; OVCAR-3, 10^−5 molar): 97.14% | Growth percent (OVCAR-5; OVCAR-5, 10^−5 molar): 68.98% | Growth percent (SN12C; SN12C, 10^−5 molar): 95.98% | Growth percent (UO-31; UO-31, 10^−5 molar): 54.16% | Growth percent (DU-145; DU-145, 10^−5 molar): 93.09% | Growth percent (HS 578T; HS 578T, 10^−5 molar): 89.65% | Growth percent (BT-549; BT-549, 10^−5 molar): 91.21% | melting point: 189 to 190 °C
